This note sets out measurements from publication PMC5355235, “FLT3 activating mutations display differential sensitivity to multiple tyrosine kinase inhibitors” (Oncotarget, 2017).

Holding throughout (format): cell-based
For assay [1], the target named is T1, wild-type FLT3 (Homo sapiens, UniProt P36888).
T1 construct: expressed in transfected cells; host or cells: BaF3
T1 sequence (P36888 27-993): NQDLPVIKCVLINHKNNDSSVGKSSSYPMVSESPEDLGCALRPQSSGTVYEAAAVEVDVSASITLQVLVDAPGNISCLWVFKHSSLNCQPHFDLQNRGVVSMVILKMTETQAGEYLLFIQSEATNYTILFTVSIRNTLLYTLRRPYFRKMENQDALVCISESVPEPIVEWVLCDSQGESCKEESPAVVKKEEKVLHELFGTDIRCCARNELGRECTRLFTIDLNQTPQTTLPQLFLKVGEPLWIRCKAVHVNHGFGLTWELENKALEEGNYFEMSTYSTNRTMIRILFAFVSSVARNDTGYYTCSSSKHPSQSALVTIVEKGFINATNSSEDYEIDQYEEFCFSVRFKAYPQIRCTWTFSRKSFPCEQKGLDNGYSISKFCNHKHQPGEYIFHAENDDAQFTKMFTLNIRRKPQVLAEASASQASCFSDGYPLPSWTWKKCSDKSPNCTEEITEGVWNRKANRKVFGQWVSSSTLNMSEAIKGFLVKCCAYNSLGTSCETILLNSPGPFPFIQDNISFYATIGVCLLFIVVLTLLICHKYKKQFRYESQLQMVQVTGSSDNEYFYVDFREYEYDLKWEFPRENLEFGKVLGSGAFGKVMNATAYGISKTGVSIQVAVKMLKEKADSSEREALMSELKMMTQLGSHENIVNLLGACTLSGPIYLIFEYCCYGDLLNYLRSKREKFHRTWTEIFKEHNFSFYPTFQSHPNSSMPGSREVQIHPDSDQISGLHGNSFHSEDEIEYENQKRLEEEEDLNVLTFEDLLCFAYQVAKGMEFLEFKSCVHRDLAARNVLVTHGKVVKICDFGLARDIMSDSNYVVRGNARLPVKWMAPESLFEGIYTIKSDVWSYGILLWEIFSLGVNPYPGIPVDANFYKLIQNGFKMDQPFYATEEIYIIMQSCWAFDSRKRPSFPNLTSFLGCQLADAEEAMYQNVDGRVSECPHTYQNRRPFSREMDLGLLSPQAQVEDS
Nature of the assay: Wild-type FLT3 autophosphorylation in FL-stimulated BaF3/WT-FLT3 cells. The conditions noted are these: TKI 1 h, then 25 ng/ml human FLT3 ligand 15 min.
Description: Figure 3 Inhibition of wild-type FLT3 signaling pathways by FLT3 TKI BaF3/WT-FLT3 cells were treated with FLT3 TKI at the indicated concentrations for 1 h at 37°C then stimulated with 25ng/ml of human FLT3 ligand for 15 minutes, followed by immunoprecipitation for FLT3, SDS-PAGE and WB for FLT3 and phospho-FLT3 (PFLT3).
Activated FLT3 expression was measured by performing immunoprecipitation, SDS-PAGE and Western blotting as previously described. […] Specifically, 10^7 cells were washed in medium and treated with inhibitor for 1 h followed by stimulation with 25 ng/ml of FLT3 ligand for 15 minutes where indicated. Cells were washed twice with ice-cold PBS and lysed in 300 µl of NP-40 lysis buffer (150 mM NaCl, 20 mM TrisHCl (pH7.4), 10% glycerol, 1% NP-40, 10 mM EDTA, 100 mM NaF) with 2 mM Na3VO4 and protease inhibitors (Complete Tablets, Roche, Mannheim, Germany) at 4°C for 30 m. Cell lysate was harvested by centrifugation at 13,000 × g for 30 m at 4°C. FLT3 S-18 antibody was incubated with 500 µg lysate overnight at 4°C followed by immunoprecipitation with protein A-agarose beads for 2 h. Beads were washed once in Tris buffered saline with 1% Tween-20 (TBST) and twice in TBS. […] Proteins were transferred to a polyvinyl diflouride (PVDF) membrane (Millipore, Bedford, MA, USA) and detected by 4G10 phosphotyrosine antibody and anti-FLT3 S-18 antibody. […]

The target of assay [2] is T2, FLT3 D835Y (Homo sapiens, UniProt P36888, D835Y).
T2 construct: expressed in transfected cells; host or cells: BaF3
T2 sequence (P36888 27-993 D835Y): T1 sequence (P36888 27-993) with D809Y
Nature of the assay: FLT3 autophosphorylation, immunoprecipitation/Western blot, D835Y. To be noted: FLT3 D835Y cells, highest concentrations tested, 1 h. Here is the method:
Activated FLT3 expression was measured by performing immunoprecipitation, SDS-PAGE and Western blotting as previously described. Specifically, 10^7 cells were washed in medium and treated with inhibitor for 1 h followed by stimulation with 25 ng/ml of FLT3 ligand for 15 minutes where indicated. Cells were washed twice with ice-cold PBS and lysed in 300 µl of NP-40 lysis buffer (150 mM NaCl, 20 mM TrisHCl (pH7.4), 10% glycerol, 1% NP-40, 10 mM EDTA, 100 mM NaF) with 2 mM Na3VO4 and protease inhibitors (Complete Tablets, Roche, Mannheim, Germany) at 4°C for 30 m. Cell lysate was harvested by centrifugation at 13,000 × g for 30 m at 4°C. FLT3 S-18 antibody was incubated with 500 µg lysate overnight at 4°C followed by immunoprecipitation with protein A-agarose beads for 2 h. Beads were washed once in Tris buffered saline with 1% Tween-20 (TBST) and twice in TBS. Samples were boiled in sodium dodecyl sulfate (SDS) sample buffer prior to separating in a 8% SDS-polyacrylamide gel (SDS-PAGE). Proteins were transferred to a polyvinyl diflouride (PVDF) membrane (Millipore, Bedford, MA, USA) and detected by 4G10 phosphotyrosine antibody and anti-FLT3 S-18 antibody. FLT3 was visualized using the Odyssey Infra Red Imaging System from Li-Cor (Lincoln, NE, USA) using AlexaFluor 680 goat anti-mouse and AlexaFluor 800 goat anti-rabbit antibodies. […]

Assay [3] has as its system FLT3/ITD. Briefly: FLT3/ITD autophosphorylation and signaling pathways, Western blot. The conditions noted are these: FLT3/ITD cells, 1 h, concentration-dependent. Here is the method: Activated FLT3 expression was measured by performing immunoprecipitation, SDS-PAGE and Western blotting as previously described. Specifically, 10^7 cells were washed in medium and treated with inhibitor for 1 h followed by stimulation with 25 ng/ml of FLT3 ligand for 15 minutes where indicated. Cells were washed twice with ice-cold PBS and lysed in 300 µl of NP-40 lysis buffer (150 mM NaCl, 20 mM TrisHCl (pH7.4), 10% glycerol, 1% NP-40, 10 mM EDTA, 100 mM NaF) with 2 mM Na3VO4 and protease inhibitors (Complete Tablets, Roche, Mannheim, Germany) at 4°C for 30 m. Cell lysate was harvested by centrifugation at 13,000 × g for 30 m at 4°C. FLT3 S-18 antibody was incubated with 500 µg lysate overnight at 4°C followed by immunoprecipitation with protein A-agarose beads for 2 h. Beads were washed once in Tris buffered saline with 1% Tween-20 (TBST) and twice in TBS. Samples were boiled in sodium dodecyl sulfate (SDS) sample buffer prior to separating in a 8% SDS-polyacrylamide gel (SDS-PAGE). Proteins were transferred to a polyvinyl diflouride (PVDF) membrane (Millipore, Bedford, MA, USA) and detected by 4G10 phosphotyrosine antibody and anti-FLT3 S-18 antibody. FLT3 was visualized using the Odyssey Infra Red Imaging System from Li-Cor (Lincoln, NE, USA) using AlexaFluor 680 goat anti-mouse and AlexaFluor 800 goat anti-rabbit antibodies. Phosphorylation of the FLT3 downstream signaling mediators, STAT5, AKT and MAP kinase was investigated by loading 50 µg of whole cell lysate and probing with the indicated antibodies. The membrane was washed and incubated in goat anti-rabbit secondary antibody conjugated to horseradish peroxidase followed by enhanced chemiluminescence (ECL). The membrane was subsequently stripped in 200 mM glycine buffer, pH 2.5 with 0.1% Tween-20 and reprobed for STAT5, AKT and MAP kinase expression using the respective antibodies.

Positions count from the first letter of the chain named.

`Cc1cc2ncc(-c3ccccc3)nc2cc1C` [AG1295]: in assay [1], the IC50 worked out at 500 nM. Further, the “Inhibition of FLT3 autophosphorylation” value in assay [2] is recorded as “markedly reduced or absent inhibition”. In addition, the “Inhibition of FLT3 autophosphorylation and phosphorylation of STAT5, AKT and Map kinase” value in assay [3] is recorded as “inhibited FLT3 autophosphorylation”.
